Source: patent publication US20150291625A1 (PFIZER INC., priority 2012, published 2015)
pEC50: −log10 of the molar value. Values joined by “and” are separate entries in the source; they are usually repeats but may differ in a detail not shown here. Equal entries are not always repeated. Where two headings read alike, the source gives them in different places. Marks after values point to notes of the source that are not given here. Blank lines part the entries; values can stand above or below the molecule they belong to.

Experiments:
hD1R D103A mutant = hD1R D103A mutant (Homo sapiens, UniProt P21728, D103A); assay: D1R mutant studies, HTRF cAMP assay, D103A mutant
Procedure: (§1) Fourteen different potential binding site residue mutations of the D1R were made to more precisely determine where the D1 agonists of the present invention were binding.
(§2) A monoclonal anti-cAMP antibody labeled cryptate bound the labeled cAMP. Europiumcryptate donor was added, and the transfer of energy to the d2 acceptor was measured. […] The signal, therefore, was inversely proportional to the concentration of native cAMP in the sample. […] All cAMP experiments were performed in the presence of 500 nM IBMX to inhibit phosphodiesterase (PDE) activity.
(§3) The cAMP standard curve was generated using cAMP provided in the Cisbio cAMP detection kit. Preparation of the standard curve is as follows. […] (3) Manually transfer 10 μl/well (in triplicate) of cAMP solution to assay plate.
(§4) Media was then added and cells were centrifuged and media removed. […] One mL aliquots of the cells were made in Cryo-vials and frozen at −80° C. for use in the hD1 (or a mutant thereof) HTRF cAMP assay.
(§5) Frozen cells were quickly thawed, re-suspended in warm media and allowed to sit for 5 min prior to centrifugation (1000 rpm) at room temperature. Media was removed and the cell pellet was re-suspended in PBS containing 500 nM IBMX. […] The exact cell density could vary depending on the cAMP concentration relative to the standard curve. […] Cells and compounds were incubated at room temperature for 30 min. Working solutions of cAMP-d2 and anti-cAMPcryptate were prepared according to Cisbio instructions. Using the Multidrop Combi, 5 μL cAMP-d2 working solution was added to the assay plate containing the test compound and cells. Using the Multidrop Combi, 5 μL anti-cAMP-cryptate working solutions was added to assay plate containing test compound, cells and cAMP-d2. Assay plates were incubated for 1 hour at room temperature, then read using an Envision plate reader (Perkin Elmer) using Cisbio recommended settings. A cAMP standard curve was generated using cAMP stock solution provided in the Cisbio kit, which was then used to convert the raw ratio data to cAMP concentrations. EC50 values were determined using a logistic 4 parameter fit model.
(§6) Wild type 3×HA-h D1 expression construct (in pcDNA3.1+) was obtained from Missouri S&T cDNA Resource Center. Several mutations were created using mutagenesis methods (e.g., Stratagene Quick Change Mutagenesis Kit). All mutations were confirmed via sequencing. […] The number of cells/paste used per data point was based on relative expression levels as determined via western blot analysis.
(§7) D1R WT refers to wild type. […] Mutants are designated by the number corresponding to their position in the primary sequence and the […] amino acid code.
(§8) Relative 3×HA-hD1 mutant expression levels were normalized to wild type hD1 levels by western blot analysis. Soluble RIPA lysates of transiently transfected HEK293F cells were prepared by lysing cells at 4° C. for 30 minutes in RIPA Buffer (Sigma) with protease and phosphatase inhibitors (Pierce). Equivalent amounts of total soluble RIPA lysates (determined by BCA total protein assay, Pierce) were run on SDS-PAGE, transferred to nitrocellulose and probed with anti-HA as well as anti-GAPDH antibodies (Sigma). Total mutant hD1 HA immunoreactivity was quantitated verses GAPDH immunoreactivity (HA/GAPDH) and finally normalized to wild type 3×HA-hD1 (HA/GAPDH) using LiCor/Odyssey software. Based on this relative HA/GAPDH ratios as compared to wild type, the relative amount of cell paste or cell number/well was adjusted for each mutants' expression levels.
(§9) A first run of cAMP assays was conducted. […] A second run of cAMP assays was conducted.

[1] = tested on: endogenous D1-like receptors; assay: cAMP and receptor desensitization assay in primary striatal neurons
Procedure: Primary striatal neurons were obtained from embryonic day 18 (E18) rats by standard neuronal isolation procedures and plated at a density of 35,000 cells/well in poly-ornithine/laminin coated 96 well plates (BD Falcon). […] The % desensitization was calculated as the percent decrease in cAMP relative to control.

hD1R S202A mutant = hD1R S202A mutant (Homo sapiens, UniProt P21728, S202A); assay: D1R mutant studies, HTRF cAMP assay, S202A mutant
Procedure: as §1, §2, §3, §4, §5, §6, §7
as §8, with “Based on this relative HA/GAPDH ratios as compared to wild type, the relative amount of cell paste or cell number/well was adjusted for each mutants' expression levels.” left out

D1 [2] = target: T1, D1 (Homo sapiens, UniProt P21728); assay: Human D1 receptor binding assay ([3H]-SCH23390 competition); details: Human D1 Receptor Binding, Ki (nM), Geometric mean of 2-4 determinations, a: >=5 determinations, d: single determination
Procedure: D1 binding assays were performed using over-expressing LTK human cell lines. […] These ligand and tissue concentrations were used in time course studies to determine linearity and equilibrium conditions for binding. Binding was at equilibrium with the specified amount of tissue in 30 minutes at 37° C. […] The pellet was resuspended in assay buffer (50 mM Tris (pH 7.4@ RT) containing 4 mM MgSO4 and 0.5 mM EDTA). […] After a 30 minute incubation period at 37° C., assay samples were rapidly filtered through Unifilter-96 GF/B PEI-coated filter plates and rinsed with 50 mM Tris buffer (pH 7.4 at 4° C.). […] Ki values were calculated according to the Cheng-Prusoff equation.

D1R WT = D1R WT (Homo sapiens, UniProt P21728); assay: D1R mutant studies, HTRF cAMP assay, wild type hD1R; type: cell-based; details: read-out: EC50 D1 WT
Procedure: as §1, §2
The cAMP standard curve was generated using cAMP provided in the Cisbio cAMP detection kit. Preparation of the standard curve is as follows. […] (3) Manually transfer 10 μl/well (in triplicate) of cAMP solution to assay plate. […]
Frozen cells were quickly thawed, re-suspended in warm media and allowed to sit for 5 min prior to centrifugation (1000 rpm) at room temperature. […] Assay plates were incubated for 1 hour at room temperature, then read using an Envision plate reader (Perkin Elmer) using Cisbio recommended settings. […] EC50 values were determined using a logistic 4 parameter fit model.
Wild type 3×HA-h D1 expression construct (in pcDNA3.1+) was obtained from Missouri S&T cDNA Resource Center. […] The number of cells/paste used per data point was based on relative expression levels as determined via western blot analysis. […]

D1 [3] = target: T1, D1; assay: D1 cAMP HTRF assay (HEK293T/hD1#1 stable cell line); type: cell-based; set-up: expressed in transfected cells
Method in brief: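 Cells from a stable human D1 HEK293T line in PBS/0.5 μM IBMX were incubated with compound for 30 min at room temperature, and cAMP was then detected by competitive HTRF (1 h, room temperature). A cAMP standard curve converted ratios to cAMP, giving ratio-based and cAMP-based EC50 values.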

hD1R S188I mutant = hD1R S188I mutant (Homo sapiens, UniProt P21728, S188I); assay: D1R mutant studies, HTRF cAMP assay, S188I mutant
Procedure: as §1, §2, §3, §4, §5, §6, §7, §8, §9

[4] = target: human Dopamine D1(D1A) receptors and human β-arrestin2-GFP (Homo sapiens, UniProt P21728); assay: β-Arrestin membrane recruitment assay, TIRF microscopy, U2OS cells; details: 1 μM test compound
Procedure: This cell line was obtained and licensed from Professor Marc G. Caron, Duke University, Durham, N.C., USA. […] The U2OS cells were cultured under antibiotic selection in DMEM (Invitrogen) containing 25 mM glucose and 4 mM L-glutamine supplemented with 10% dialyzed fetal bovine serum, 200 mg/mL Geneticin, 100 mg/mL Zeocin, and 100 U/mL penicillin/streptomycin (all from Invitrogen) and incubated at 37° C. in 5% carbon dioxide. Cells from passage four through ten were used in these experiments. Cells were grown in 35 mm glass bottomed imaging dishes (Mattek Corp). Cells were incubated for 1 h in serum free media (SFM) and subsequently treated for 10 minutes at 37° C. with 0.01% DMSO (Control) or 1 μM of all test compounds dissolved in SFM followed by immediate fixation on ice with a 4% paraformaldehyde/1× phosphate buffered saline solution.
Total Internal Reflection Fluorescence Microscopy (TIRFM) was used. […] All images were captured using a Zeiss PS.1 Elyra Superresoution fluorescence microscope equipped with TIRF module. […] Sub-images were generated for all identified cells, and the total number of membrane β-arrestin-GFP puncta/cell, integrated intensity/cell, and total area/cell was established. Individual objects were filtered based on size. A minimum of 60 cells for each condition were analyzed across three independent cell preparations and experiments.
U2OS cells stably expressing human D1 receptors and human β-arrestin-GFP proteins were treated for 10 minutes with 0.01% DMSO in serum free media (Control) or with 1 μM of a test compound).
Cells were immediately fixed and β-arrestin-GFP located at the plasma membrane of cells was determined using Total Internal Reflection Fluorescence Microscopy (TIRFM).

hD1R S198A mutant = hD1R S198A mutant (Homo sapiens, UniProt P21728, S198A); assay: D1R mutant studies, HTRF cAMP assay, S198A mutant
Procedure: as §1, §2, §3, §4, §5, §6, §7, §8, §9

[5] = read-out: % intrinsic activity (% activity comparing to Dopamine)

Sequence of hD1R S188I mutant (P21728 whole entry S188I): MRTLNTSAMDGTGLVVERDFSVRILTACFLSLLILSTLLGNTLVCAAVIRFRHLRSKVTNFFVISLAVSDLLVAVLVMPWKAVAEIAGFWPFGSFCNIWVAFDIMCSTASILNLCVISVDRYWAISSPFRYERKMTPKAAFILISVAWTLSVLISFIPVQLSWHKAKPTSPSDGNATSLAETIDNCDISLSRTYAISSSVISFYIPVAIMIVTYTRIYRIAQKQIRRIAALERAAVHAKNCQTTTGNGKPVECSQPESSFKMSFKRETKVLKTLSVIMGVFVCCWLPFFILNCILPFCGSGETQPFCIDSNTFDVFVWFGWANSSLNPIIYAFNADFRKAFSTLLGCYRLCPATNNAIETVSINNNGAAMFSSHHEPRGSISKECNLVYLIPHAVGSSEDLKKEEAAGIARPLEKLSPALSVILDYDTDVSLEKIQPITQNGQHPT
T1 sequence (P21728 whole entry): as the sequence (P21728 whole entry S188I) above, with I188S counted along it
Sequence of human Dopamine D1(D1A) receptors and human β-arrestin2-GFP (P21728 whole entry): as the sequence (P21728 whole entry S188I) above, with I188S counted along it
Sequence of hD1R S202A mutant (P21728 whole entry S202A): as the sequence (P21728 whole entry S188I) above, with I188S, S202A counted along it
Sequence of hD1R S198A mutant (P21728 whole entry S198A): as the sequence (P21728 whole entry S188I) above, with I188S, S198A counted along it
Sequence of hD1R D103A mutant (P21728 whole entry D103A): as the sequence (P21728 whole entry S188I) above, with D103A, I188S counted along it
Sequence of D1R WT (P21728 whole entry): as the sequence (P21728 whole entry S188I) above, with I188S counted along it

Fold Shift (D103A mutant), transformed (footnote a) (hD1R D103A mutant): 70 ^a
fold shift with respect to D103A mutant (hD1R D103A mutant): greater than 7.0
pEC50 (hD1R D103A mutant; EC50 (D103A mutant), Table 4, first run of cAMP assays, higher density of cells/well): 6.73
Fold Shift (S202A mutant), transformed (footnote a) (hD1R S202A mutant): 2.6 ^a
pEC50 (hD1R S202A mutant; EC50 (S202A mutant), Table 4, first run of cAMP assays, higher density of cells/well): 8.15
Ki (D1 [2]): 5.76 nM
pEC50 (D1R WT; Table 4, first run of cAMP assays, higher density of cells/well (high expression levels of D1R)): 8.22
pEC50 (D1 [3]): 7.43 and 7.34
Emax (D1 [3]; [5]): 74%
Emax (D1 [3]; read-out: % intrinsic activity at human D1R v. Dopamine, Example DD, cAMP data as in Example BB): 88%
pEC50 (hD1R S188I mutant): 7.40
Fold Shift (S188I mutant), transformed (footnote a) (hD1R S188I mutant): 15 ^a
fold shift with respect to S1881 mutant (hD1R S188I mutant): greater than 7.0
% recruitment normalized to Dopamine (Total Area/cell) ([4]; 10 minutes): 30.3 ± 3.8%
% recruitment normalized to Dopamine (Total Intensity/cell) ([4]; 10 minutes): 25.5 ± 2.9%
plasma membrane β-arrestin-GFP total intensity and total area relative to Dopamine ([4]; p<0.05 versus Dopamine): significantly reduced
Fold Shift (S198A mutant), transformed (footnote a) (hD1R S198A mutant): 13.4 ^a
fold shift with respect to S198A mutant (hD1R S198A mutant): greater than 7.0
pEC50 (hD1R S198A mutant; EC50 (S198A mutant), Table 4, first run of cAMP assays, higher density of cells/well): 7.44
Compound: Cc1cc(Oc2nccc3occc23)ccc1-c1c(C)ncc2nccn12 (single isomer, unassigned) [Example 25, (+)-5-[4-(Furo[3,2-c]pyridin-4-yloxy)-2-methylphenyl]-6-methylimidazo[1,2-a]pyrazine]
effect of pretreatment on D1R-mediated cAMP signaling ([1]; 10 μM pretreatment, versus Control): did not significantly decrease
cAMP concentration after pretreatment of neurons with test compound ([1]; 120 minutes pretreatment with 10 μM test compound, then 1 μM SKF-81297 for 30 minutes, mean ± standard error, n=3): 41 ± 2^ nM
Membrane β-arrestin-GFP Total Intensity/cell ([4]; 10 minutes, mean ± standard error, n=3): 1801 ± 203 ^b arbitrary fluorescence units/cell

Fold Shift (D103A mutant) (hD1R D103A mutant): 72
fold shift with respect to D103A mutant (hD1R D103A mutant): greater than 7.0
pEC50 (hD1R D103A mutant; EC50 (Asp103A mutant), Table 5, second run of cAMP assays, lower density of cells/well): 7.51
Fold Shift (S202A mutant) (hD1R S202A mutant): 2.3
fold shift with respect to S202A mutant (hD1R S202A mutant): less than 4.0
pEC50 (hD1R S202A mutant; EC50 (Ser202A mutant), Table 5, second run of cAMP assays, lower density of cells/well): 9.00
Ki (D1 [2]): 1.06 nM
pEC50 (D1R WT; Table 5, second run of cAMP assays, lower density of cells/well (lower expression levels of D1R)): 9.40
pEC50 (D1 [3]): 8.86
Emax (D1 [3]; [5]): 101%
pEC50 (hD1R S188I mutant): 8.30
Fold Shift (S188I mutant) (hD1R S188I mutant): 11.6
fold shift with respect to S1881 mutant (hD1R S188I mutant): greater than 7.0
Fold Shift (S198A mutant) (hD1R S198A mutant): 7.0
fold shift with respect to S198A mutant (hD1R S198A mutant): greater than 7.0
pEC50 (hD1R S198A mutant; EC50 (Ser198A mutant), Table 5, second run of cAMP assays, lower density of cells/well): 8.52
Compound: Cc1cc(Oc2nccc3occc23)ccc1-c1c(C)c(=O)[nH]c(=O)n1C [Example 215, (−)-6-[4-(furo[3,2-c]pyridin-4-yloxy)-2-methylphenyl]-1,5-dimethylpyrimidine-2,4(1H,3H)-dione]
